Results as given in ChEMBL document CHEMBL5352385, “Marine natural products and their synthetic analogs as promising antibiofilm agents for antibiotics discovery and development” (Eur J Med Chem, 2022).
Where a SMILES comes first, the peptide text is derived from it. [ ]: non-standard residue; d: D form. ξ: configuration not given here. ξGly(tetradecyl) = CCCCCCCCCCCCCCC(N)C(=O)O

Experiments:
Vibrio anguillarum = test: Antibiofilm activity against Vibrio anguillarum at 300 ug/ml relative to control; format: functional; settings: dose 300 µg/ml
Pseudomonas aeruginosa [1] = test: Antibiofilm activity against Pseudomonas aeruginosa at 300 ug/ml relative to control; format: functional; settings: dose 300 µg/ml
Bacillus subtilis [2] = test: Antibiofilm activity against Bacillus subtilis at 300 ug/ml relative to control; format: functional; settings: dose 300 µg/ml
Bacillus sp. = test: Antibiofilm activity against Bacillus sp. 176 at 300 ug/ml relative to control; format: functional; settings: dose 300 µg/ml
Staphylococcus aureus [3] = test: Antibiofilm activity against Staphylococcus aureus ATCC 25923 at 8 to 16 ug/ml incubated for 24 hrs by crystal violet staining based analysis relative to control; format: functional; settings: dose 8-16 µg/ml, at 8 to 16 µg/mL
Bacillus subtilis [4] = test: Antibiofilm activity against Bacillus subtilis ATCC 6633 at 8 to 16 ug/ml incubated for 24 hrs by crystal violet staining based analysis relative to control; format: functional; settings: dose 8-16 µg/ml, at 8 to 16 µg/mL
Staphylococcus aureus [5] = test: Antibiofilm activity against Staphylococcus aureus B1 at 8 to 16 ug/ml incubated for 24 hrs by crystal violet staining based analysis relative to control; format: functional; settings: dose 8-16 µg/ml, at 8 to 16 µg/mL
Enterococcus faecalis = test: Antibiofilm activity against Enterococcus faecalis W1 at 8 to 16 ug/ml incubated for 24 hrs by crystal violet staining based analysis relative to control; format: functional; settings: dose 8-16 µg/ml, at 8 to 16 µg/mL
Staphylococcus aureus [6] = test: Antibiofilm activity against Staphylococcus aureus ATCC 29213 at 0.5 to 4 ug/ml relative to control; format: functional; settings: dose 0.5-4 µg/ml; at 0.5 to 4 µg/mL
Listeria monocytogenes = test: Antibiofilm activity against Listeria monocytogenes ATCC 19111 at 256 ug/ml relative to control; format: functional; settings: dose 256 µg/ml
[7] = test system: Staphylococcus epidermidis; test: Antibiofilm activity against Staphylococcus epidermidis RP62A at 256 ug/ml relative to control; format: functional; settings: dose 256 µg/ml
Serratia marcescens [8] = test: Antibiofilm activity against Serratia marcescens at 30 ug/ml relative to control; format: functional; settings: dose 30 µg/ml
Pseudomonas aeruginosa [9] = test: Antibiofilm activity against Pseudomonas aeruginosa assessed as inhibition of biofilm formation at 90 ug/ml incubated for 24 hrs by crystal violet staining based analysis relative to control; format: functional; parameters: scale not given: the % may be the effect or the level left; settings: dose 90 µg/ml
[10] = Inhibition of quorum-sensing system in Staphylococcus epidermidis assessed as inhibition of AI-2 at 60 ug/ml by bioluminescence assay relative to control; settings: dose 60.0 µg/ml
Serratia marcescens [11] = test: Antibiofilm activity against Serratia marcescens FJ584421 assessed as inhibition of biofilm formation at 300 ug/ml relative to control; format: functional; parameters: scale not given: the % may be the effect or the level left; settings: dose 300 µg/ml
Candida albicans [12] = test: Antibiofilm activity against Candida albicans assessed as inhibition of biofilm formation at 400 ug/ml by microbroth dilution assay relative to control; format: functional; parameters: scale not given: the % may be the effect or the level left; settings: dose 400 µg/ml
Escherichia coli = test: Antibiofilm activity against Escherichia coli at 50.9 ug/ml relative to control; format: functional; settings: dose 50.9 µg/ml
Candida albicans [13] = test: Antibiofilm activity against Candida albicans assessed as reduction in biofilm formation at >200 ug/ml measured after 48 hrs by crystal violet staining based analysis relative to control; format: functional; parameters: scale not given: the % may be the effect or the level left; settings: dose > 200 µg/ml
Staphylococcus aureus [14] = test: Antibiofilm activity against methicillin-resistant Staphylococcus aureus CH 10850 at 33.2 ug/ml relative to control; format: functional; settings: dose 33.2 µg/ml
Pseudomonas aeruginosa [15] = test: Antibiofilm activity against Pseudomonas aeruginosa at 100 ug/ml relative to control; format: functional; settings: dose 100 µg/ml
Staphylococcus aureus [16] = test: Antibiofilm activity against Staphylococcus aureus at 100 ug/ml relative to control; format: functional; settings: dose 100 µg/ml
Streptococcus mutans [17] = test: Antibiofilm activity against clinical isolates Streptococcus mutans assessed as inhibition of biofilm formation at 3.0 ug/ml relative to control; format: functional; parameters: scale not given: the % may be the effect or the level left; settings: dose 3 µg/ml
Streptococcus mutans [18] = test: Antibiofilm activity against Streptococcus mutans UA159 assessed as inhibition of biofilm formation at 3.0 ug/ml relative to control; format: functional; parameters: scale not given: the % may be the effect or the level left; settings: dose 3 µg/ml
[19] = test system: Staphylococcus epidermidis; test: Antibiofilm activity against Staphylococcus epidermidis; format: functional
Pseudomonas aeruginosa [20] = test: Antibiofilm activity against Pseudomonas aeruginosa PA01 at 128 ug/ml relative to control; format: functional; settings: dose 128 µg/ml
Staphylococcus aureus [21] = test: Antibiofilm activity against Staphylococcus aureus ATCC 6538 at 12.5 ug/ml relative to control; format: functional; settings: dose 12.5 µg/ml
Streptococcus mutans [22] = test: Antibiofilm activity against Streptococcus mutans at 5 ug/ml relative to control; format: functional; settings: dose 5 µg/ml

With `CCCCCCCCCCCCCCC1NC(=O)C(C(C)CC)NC(=O)C(CC(C)C)NC(=O)C(CC(=O)OC)NC(=O)C(CC(C)C)NC(=O)C(CC(C)C)NC(=O)C(CC(C)C)NC(=O)C(CCC(=O)OC)NC1=O` (configuration not stated) (cyclo([ξGly(tetradecyl)]E(OMe)LLLD(OMe)LI); configuration not given here) the Activity (Vibrio anguillarum) was >50%, the Activity (Pseudomonas aeruginosa [1]) was >50% and the Activity (Bacillus subtilis [2]) was >50%. The Activity (Bacillus sp.) was >50%.
With `C=C1CC[C@H]2[C@@](C)(CC[C@H]3C(C)(C)[C@@H](OC(C)=O)CC[C@]23C)[C@@H]1Cc1c(O)cc(C)oc1=O` the Activity (Staphylococcus aureus [3]) was 100%, the Activity (Bacillus subtilis [4]) was 100% and the Activity (Staphylococcus aureus [5]) was 100%. For the same molecule, the Activity (Enterococcus faecalis) was 100%.
Molecule `COC(=O)CCN(CCCCCCCCCCCOCCc1ccc[n+](Cc2ccccc2)c1)C(=O)OC(C)(C)C.[Cl-]` has an Activity (Staphylococcus aureus [6]) of 25%.
`CC(C)C[C@@H]1NC(=O)[C@@H]2CCCN2C1=O` showed an Activity (Listeria monocytogenes) of 86.9%, an Activity [7] of 82% and an Activity (Serratia marcescens [8]) of 53.5%.
In the case of `CC(C)CC(=O)NCCc1ccccc1`, the Activity (Pseudomonas aeruginosa [9]) is reported as >40%.
For `CCCCCCCCCCCCCCC=O`, the inhibition [10] was > 50%.
`OCCc1ccc(O)cc1` [TYROSOL] showed an Activity (Serratia marcescens [11]) of 85.7%.
Work on `O=Cc1ccc(CO)o1` [AES-103] yielded an Activity (Candida albicans [12]) of 86%.
Work on `NC1=N[C@]23CCCN2C(=O)c2[nH]c(Br)c(Br)c2[C@@H]3N1` yielded an Activity (Escherichia coli) of 50%.
Work on `C/C=C/CCCC(C)/C(O)=C1\C(=O)[C@H](C(C)O)N(C)C1=O` (some centres not stated) yielded an Activity (Candida albicans [13]) of 80%.
For `CC(=O)O[C@@H]1O[C@H]2OC(=O)C3=C(C)[C@@](C)([C@@]4(C)CCCC(C)(C)C4)CC[C@@H]1[C@H]32`, the Activity (Staphylococcus aureus [14]) was 50%.
For `CCCC/C=C\CCCCCCCCCCCC=O`, the Activity (Pseudomonas aeruginosa [15]) was 82.657% and the Activity (Staphylococcus aureus [16]) was 78.973%.
`C[C@H](CC[C@H](C)C(C)(C)C)[C@H]1CC[C@H]2C3C[C@H](OS(=O)(=O)[O-])[C@H]4C[C@H](OS(=O)(=O)[O-])[C@@H](OS(=O)(=O)[O-])C[C@]4(C)[C@H]3CC[C@]12C.[Na+].[Na+].[Na+]` (some centres not stated) showed an Activity (Streptococcus mutans [17]) of 85.2% and an Activity (Streptococcus mutans [18]) of 99.5%.
`O=C1Nc2ccc(Br)cc2C1(c1c[nH]c2ccccc12)c1c[nH]c2ccccc12` gave an MBIC [19] of 5 µM and an Activity (Pseudomonas aeruginosa [20]) of 49.32%.
In the case of `Cc1cc(O)c2c(c1)C(=O)c1cc(O)cc(O)c1C2=O` [EMODIN], the Activity (Staphylococcus aureus [21]) is reported as >50% and the Activity (Streptococcus mutans [22]) is reported as 90%.
